Source: patent publication US20250304990A1, “HERBICIDE RESISTANCE” (SYNGENTA CROP PROTECTION AG, priority 2021, published 2025)
Values joined by “and” are separate entries in the source; they are usually repeats but may differ in a detail not shown here. Equal entries are not always repeated.

Experiments:
Type in all cases: in vivo
[1] = tested on: D4291 (WT Arabidopsis thaliana HST) containing tobacco plant; assay: Herbicide damage score after spraying, Example 3; details: for Average percentage damage: D4291, mutation n.a., averaged across transgenic population; for tolerance to herbicide: overexpression of Arabidopsis HST gene (SEQ ID NO.14) in tobacco
Procedure: (§1) In order to determine if the newly discovered mutations detailed in Example 1 confer resistance to HST inhibiting compounds when expressed in plants, GM tobacco lines are to be produced and tested with HST inhibiting compounds. Transgenic tobacco plants expressing the Arabidopsis HST gene with and without mutations were tested.
(§2) Populations of transgenic tobacco comprising 20-30 transgenic events per plant transformation constructs were generated as described in Example 2. These lines were clonally propagated and 1 clone per event was sprayed with 500, 100 or 50 g ai/ha of compound 1+0.2% Genapol X080 with a spray volume of 200 L/Ha (“g ai/ha” refers to grams of active compound per hectare).
(§3) Herbicidal damage was visually assessed across the population and a herbicide damage score given at 7 and 14 days. A score of 0 indicates no visible damage or stunting whereas a score of 100 indicates a complete death of the plant. 20 transgenic events (i.e. individual transgenic plants) from each GM tobacco line were transplanted to soil 1 week prior to spraying with HST inhibiting compounds. WT tobacco was included as a control.
(§4) The values in Tables 8 to 14 below refer to percentage of damage to the tested plants and show the damage scores for 20 populations of plants expressing either Arabidopsis WT HST gene (SEQ ID NO. 14), the Arabidopsis HST mutated gene according to SEQ ID NO. 27, the Arabidopsis HST mutated gene according to SEQ ID NO. 28, the Arabidopsis HST mutated gene according to SEQ ID NO. 29, the Arabidopsis HST mutated gene according to SEQ ID NO. 30, or the Arabidopsis HST mutated gene according to SEQ ID NO. 31. A control population of wild-type Samsun tobacco was also assessed for herbicide damage. […] However the mutated versions of the HST gene carrying the F276I, V277A, F280I or F280L mutations (SEQ ID NOs: 27, 28, 30 or 31) clearly display increased tolerance.

[2] = tested on: D4292 (F276I mutant Arabidopsis thaliana HST) containing tobacco plant; assay: Herbicide damage score after spraying, Example 3; details: averaged across transgenic population
Procedure: as §1, §2, §3, §4

[3] = tested on: D4293 (V277A mutant Arabidopsis thaliana HST) containing tobacco plant; assay: Herbicide damage score after spraying, Example 3; details: averaged across transgenic population
Procedure: as §1, §2, §3, §4

[4] = tested on: D4294 (T278N mutant Arabidopsis thaliana HST) containing tobacco plant; assay: Herbicide damage score after spraying, Example 3; details: for percentage of damage: D4294 AraHST V003 T278N, per GM event; for Average percentage damage: D4294 T278N, averaged across transgenic population
Procedure: as §1, §2, §3, §4

[5] = tested on: D4295 (F280I mutant Arabidopsis thaliana HST) containing tobacco plant; assay: Herbicide damage score after spraying, Example 3; details: averaged across transgenic population
Procedure: as §1, §2, §3, §4

WT tobacco [6] = assay: Herbicide damage score after spraying, Example 3; details: WT tobacco control, per plant
Procedure: as §1, §2, §3, §4

[7] = tested on: D4424 (WT Oryza sativa HST) containing tobacco plant; assay: Herbicide damage score after spraying, Example 4; details: for Average percentage damage: D4424, mutation n.a., averaged across transgenic population; for tolerance to herbicide: overexpression of Oryza sativa HST gene (SEQ ID NO.18) in tobacco
Procedure: as §1, with “were” for “are to be”, “Oryza sativa” for “Arabidopsis”
(§5) Populations of transgenic tobacco comprising 20-30 transgenic events per plant transformation constructs were generated as described in Example 2. These lines were clonally propagated and 1 clone per event was sprayed with 500, 100 or 50 g ai/ha of compound 1+0.2% (w/v) Genapol X080 with a spray volume of 200 L/Ha. (“g ai/ha” refers to grams of active compound per hectare).
as §3, with “control. The mutated genes are identified in Table 16 below.” for “control.”
(§6) The values in Tables 17 to 23 below refer to percentage of damage to the tested plants and show the damage scores for 20 populations of plants expressing either Oryza sativa WT HST gene (SEQ ID NO. 18), the Oryza sativa HST mutated gene according to SEQ ID NO. 47, the Oryza sativa HST mutated gene according to SEQ ID NO. 48, the Oryza sativa HST mutated gene according to SEQ ID NO. 49, the Oryza sativa HST mutated gene according to SEQ ID NO. 50, or the Oryza sativa HST mutated gene according to SEQ ID NO. 51. A control population of wild-type Samsun tobacco was also assessed for herbicide damage. […] However the mutated versions of the HST gene carrying the F262I, V263A, […], or F266L mutations (SEQ ID NOs: 47, 48, 50 or 51) clearly display increased tolerance.

[8] = tested on: D4425 (F262I mutant Oryza sativa HST) containing tobacco plant; assay: Herbicide damage score after spraying, Example 4; details: averaged across transgenic population
Procedure: as §1, with “were” for “are to be”, “Oryza sativa” for “Arabidopsis”
as §5
as §3, with “control. The mutated genes are identified in Table 16 below.” for “control.”
as §6

[9] = tested on: D4426 (V263A mutant Oryza sativa HST) containing tobacco plant; assay: Herbicide damage score after spraying, Example 4; details: for Average percentage damage: D4426 V263A, averaged across transgenic population
Procedure: as §1, with “were” for “are to be”, “Oryza sativa” for “Arabidopsis”
as §5
as §3, with “control. The mutated genes are identified in Table 16 below.” for “control.”
as §6

[10] = tested on: D4427 (T264N mutant Oryza sativa HST) containing tobacco plant; assay: Herbicide damage score after spraying, Example 4; details: for percentage of damage: D4427 OsHST V003 T264N, per event; for Average percentage damage: D4427 T264N, averaged across transgenic population
Procedure: as §1, with “were” for “are to be”, “Oryza sativa” for “Arabidopsis”
as §5
as §3, with “control. The mutated genes are identified in Table 16 below.” for “control.”
as §6

[11] = tested on: D4428 (F266I mutant Oryza sativa HST) containing tobacco plant; assay: Herbicide damage score after spraying, Example 4; details: averaged across transgenic population
Procedure: as §1, with “were” for “are to be”, “Oryza sativa” for “Arabidopsis”
as §5
as §3, with “control. The mutated genes are identified in Table 16 below.” for “control.”
as §6

[12] = tested on: D4429 (F266L mutant Oryza sativa HST) containing tobacco plant; assay: Herbicide damage score after spraying, Example 4; details: averaged across transgenic population
Procedure: as §1, with “were” for “are to be”, “Oryza sativa” for “Arabidopsis”
as §5
as §3, with “control. The mutated genes are identified in Table 16 below.” for “control.”
as §6

WT tobacco [13] = assay: Herbicide damage score after spraying, Example 4; details: WT tobacco (Example 4), per plant
Procedure: as §1, with “were” for “are to be”, “Oryza sativa” for “Arabidopsis”
as §5
as §3, with “control. The mutated genes are identified in Table 16 below.” for “control.”
as §6

Cc1nn(C)c(=O)c(-c2c(F)ccc(Cl)c2CCc2ccnc(F)c2)c1O [B5a, 4-[3-chloro-6-fluoro-2-[2-(2-fluoro-4-pyridyl)ethyl]phenyl]-5-hydroxy-2,6-dimethyl-pyridazin-3-one]
Average percentage damage ([1]; T2 B5a 100 gai/ha): 89%
tolerance to herbicide [1]: does not increase tolerance
Average percentage damage ([2]; T2 B5a 100 gai/ha): 45%
Average percentage damage ([3]; T2 B5a 100 gai/ha): 28%
percentage of damage ([4]; T2 B5a 100 gai/ha): 100% and 95% and 90% and 99%
Average percentage damage ([4]; T2 B5a 100 gai/ha): 96%
Average percentage damage ([5]; T2 B5a 100 gai/ha): 60%
percentage of damage (WT tobacco [6]; T2 B5a 100 gai/ha): 95% and 90% and 85%
Average percentage damage ([7]; T2 B5a 100 gai/ha): 93%
percentage of damage ([7]; T2 B5a 100 gai/ha, D4424 pBin TMV OsHST, per event): 90% and 96% and 95% and 97% and 98% and 85% and 80%
tolerance to herbicide [7]: does not increase tolerance
Average percentage damage ([8]; T2 B5a 100 gai/ha): 69%
Average percentage damage ([9]; T2 B5a 100 gai/ha): 22%
percentage of damage ([10]; T2 B5a 100 gai/ha): 95% and 98% and 80% and 97% and 96% and 99% and 100%
Average percentage damage ([10]; T2 B5a 100 gai/ha): 96%
Average percentage damage ([11]; T2 B5a 100 gai/ha): 75%
Average percentage damage ([12]; T2 B5a 100 gai/ha): 42%
percentage of damage (WT tobacco [13]; T2 B5a 100 gai/ha): 90% and 95%

Cc1nn(C)c(=O)c(-c2c(F)ccc(Cl)c2CCc2cnn(C)c2)c1O [B5b, 4-[3-chloro-6-fluoro-2-[2-(1-methylpyrazol-4-yl)ethyl]phenyl]-5-hydroxy-2,6-dimethyl-pyridazin-3-one]
Average percentage damage ([1]; T3 B5b 100 gai/ha): 47%
tolerance to herbicide [1]: does not increase tolerance
Average percentage damage ([2]; T3 B5b 100 gai/ha): 26%
Average percentage damage ([3]; T3 B5b 100 gai/ha): 15%
percentage of damage ([4]; T3 B5b 100 gai/ha): 100% and 75% and 95% and 98% and 99% and 90%
Average percentage damage ([4]; T3 B5b 100 gai/ha): 95%
Average percentage damage ([5]; T3 B5b 100 gai/ha): 29%
percentage of damage (WT tobacco [6]; T3 B5b 100 gai/ha): 90% and 95%
Average percentage damage ([7]; T3 B5b 100 gai/ha): 82%
tolerance to herbicide [7]: does not increase tolerance
Average percentage damage ([8]; T3 B5b 100 gai/ha): 36%
percentage of damage ([9]; T3 B5b 100 gai/ha, D4426 OsHST V002 V263A, per event): 5% and 0% and 10% and 3%
Average percentage damage ([9]; T3 B5b 100 gai/ha): 4%
percentage of damage ([10]; T3 B5b 100 gai/ha): 96% and 98% and 95% and 97% and 99% and 90%
Average percentage damage ([10]; T3 B5b 100 gai/ha): 96%
Average percentage damage ([11]; T3 B5b 100 gai/ha): 34%
Average percentage damage ([12]; T3 B5b 100 gai/ha): 18%
percentage of damage (WT tobacco [13]; T3 B5b 100 gai/ha): 95% and 96% and 97% and 93% and 90%

Cc1nc2ccc(CCc3c(Cl)ccc(F)c3-c3c(O)c(C)nn(C)c3=O)cc2o1 [B8a, 4-[3-chloro-6-fluoro-2-[2-(2-methyl-1,3-benzoxazol-6-yl)ethyl]phenyl]-5-hydroxy-2,6-dimethyl-pyridazin-3-one]
Average percentage damage ([1]; T4 B8a 50 gai/ha): 64%
tolerance to herbicide [1]: does not increase tolerance
Average percentage damage ([2]; T4 B8a 50 gai/ha): 33%
Average percentage damage ([3]; T4 B8a 50 gai/ha): 16%
Average percentage damage ([4]; T4 B8a 50 gai/ha): 90%
Average percentage damage ([5]; T4 B8a 50 gai/ha): 30%
percentage of damage (WT tobacco [6]; T4 B8a 50 gai/ha): 85% and 95% and 90%
Average percentage damage ([7]; T4 B8a 50 gai/ha): 36%
tolerance to herbicide [7]: does not increase tolerance
Average percentage damage ([8]; T4 B8a 50 gai/ha): 28%
Average percentage damage ([9]; T4 B8a 50 gai/ha): 14%
Average percentage damage ([10]; T4 B8a 50 gai/ha): 46%
Average percentage damage ([11]; T4 B8a 50 gai/ha): 27%
Average percentage damage ([12]; T4 B8a 50 gai/ha): 22%
percentage of damage (WT tobacco [13]; T4 B8a 50 gai/ha): 95% and 96%
